Where two headings read alike, the source gives them in different places.
Columns and labels:
[1] = target: T1, human serum albumin (HSA) (Homo sapiens, UniProt P02768); assay: Steady-state fluorescence displacement of warfarin from HSA by CIT; format: binding; set-up: purchased Sigma-Aldrich; conditions: warfarin 1 μM, HSA 3.5 μM, CIT 0.25–5.0 μM
[2] = target: T1, human serum albumin (HSA)
Description: Before ultrafiltration samples contained 1 μM CIT with or without HSA (1, 2.5 or 5 μM), while displacement of CIT by WAR (5 and 10 μM) or OTA (2.5 and 5 μM) was investigated in the presence of 1 μM CIT and 5 μM HSA. During ultrafiltration experiments Amicon Ultra-4 centrifugal filter units (with 10 kDa molecular weight cut-off value; from Merck Millipore, Darmstadt, Germany) were applied. In order to remove glycerol from the filters, filter units were washed with 3 mL water and 3 mL PBS. Thereafter, 2.5 mL of the samples were transferred into the filter and Amicon tubes were centrifuged at 7500 g for 10 min at 25 °C (in Hettich Universal 32R centrifuge with fixed-angle rotor). Then 2 mL quantity of filtrate was transferred into 5-mL Eppendorf tube, after which 10 μL 6 M HCl solution was added to the sample in order to adjust the pH (to approximately 2). […] Final CIT concentrations were determined (applying calibration curve at concentration range 0.1–2.0 μM) by Hitachi F-4500 fluorescence spectrophotometer with the measurement of the fluorescence signal of CIT itself, using 330 nm and 500 nm as excitation and emission wavelengths, respectively.

rat serum albumin (RSA) = target: T2, rat serum albumin (RSA) (Rattus norvegicus, UniProt P02770); assay: Fluorescence quenching of albumin by CIT, binding constant; conditions: PBS pH 7.4, 25 °C; read-out: logK (±SD) of CIT-RSA complex (converted)
T2 construct: purchased Sigma-Aldrich
T2 sequence (P02770 25-608): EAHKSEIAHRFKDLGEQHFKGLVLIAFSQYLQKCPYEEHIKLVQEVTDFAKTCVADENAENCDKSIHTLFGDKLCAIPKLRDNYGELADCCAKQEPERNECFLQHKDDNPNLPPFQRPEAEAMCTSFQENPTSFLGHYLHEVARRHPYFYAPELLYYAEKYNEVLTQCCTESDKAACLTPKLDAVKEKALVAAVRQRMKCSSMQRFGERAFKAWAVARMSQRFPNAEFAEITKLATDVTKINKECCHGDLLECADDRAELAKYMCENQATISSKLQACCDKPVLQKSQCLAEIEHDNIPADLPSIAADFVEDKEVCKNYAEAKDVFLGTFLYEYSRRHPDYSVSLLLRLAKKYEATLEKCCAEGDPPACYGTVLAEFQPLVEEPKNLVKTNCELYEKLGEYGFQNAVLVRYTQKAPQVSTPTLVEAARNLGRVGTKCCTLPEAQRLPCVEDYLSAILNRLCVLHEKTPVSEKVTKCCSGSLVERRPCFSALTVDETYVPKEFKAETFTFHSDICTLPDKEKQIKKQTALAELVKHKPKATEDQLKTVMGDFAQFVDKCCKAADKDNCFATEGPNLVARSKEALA
Description: (§1) A Fluorolog τ3 spectrofluorometric system (Jobin-Yvon/SPEX) and Hitachi F-4500 fluorescence spectrophotometer were used for steady-state fluorescence and fluorescence polarization measurements. All analyses were performed at +25 °C except thermodynamic studies.
(§2) Binding constants (K) were determined using fluorescence quenching method, where increasing CIT concentrations (0–5 μM) were added to standard amount of albumin (2 μM). Fluorescence emission spectra were recorded in PBS buffer (pH 7.4; λexc = 280 nm). Similarly to our previous studies, K values of CIT-albumin complexes were quantified by non-linear fitting with Hyperquad2006 program package (Protonic Software) assuming 1:1 stoichiometry: (1) I=I0+IAC−I0/2[A]0([A]0+[C]0+1/K−([A]0+[C]0+1/K)^2−4[A]0[C]0) where I denotes the fluorescence emission intensity of albumin in presence of CIT; I0 denotes the fluorescence emission intensity of albumin in absence of CIT; IAC denotes the fluorescence emission intensity of pure albumin-CIT complex (which is calculated by the Hyperquad2006 software); K denotes the binding constant; while [A]0 and [C]0 denote the total concentrations of albumin and CIT, respectively.

[3] = target: T3, bovine serum albumin (BSA) (Bos taurus, UniProt P02769); assay: as above; conditions: PBS pH 7.4, 25 °C; read-out: logK (±SD) of CIT-BSA complex (converted)
T3 construct: purchased Sigma-Aldrich
T3 sequence (P02769 25-607): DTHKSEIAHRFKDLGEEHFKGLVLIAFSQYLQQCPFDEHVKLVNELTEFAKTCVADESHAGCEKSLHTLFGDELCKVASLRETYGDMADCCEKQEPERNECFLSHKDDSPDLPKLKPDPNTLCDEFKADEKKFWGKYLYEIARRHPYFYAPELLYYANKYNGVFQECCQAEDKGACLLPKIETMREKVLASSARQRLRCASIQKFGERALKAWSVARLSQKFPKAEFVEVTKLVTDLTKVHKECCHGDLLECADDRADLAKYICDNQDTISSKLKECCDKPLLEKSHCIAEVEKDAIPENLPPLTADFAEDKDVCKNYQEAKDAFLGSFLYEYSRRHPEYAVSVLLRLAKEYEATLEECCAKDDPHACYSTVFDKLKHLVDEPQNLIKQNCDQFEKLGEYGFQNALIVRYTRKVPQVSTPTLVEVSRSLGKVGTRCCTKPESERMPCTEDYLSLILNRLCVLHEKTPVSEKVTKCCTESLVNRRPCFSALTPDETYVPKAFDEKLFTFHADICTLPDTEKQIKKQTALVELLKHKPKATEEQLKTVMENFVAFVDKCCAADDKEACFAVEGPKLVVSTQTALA
Description: as §1, §2

[4] = target: T4, porcine serum albumin (PSA) (Sus scrofa, UniProt P08835); assay: as above; conditions: PBS pH 7.4, 25 °C; read-out: logK (±SD) of CIT-PSA complex (converted)
T4 construct: purchased Sigma-Aldrich
T4 sequence (P08835 25-607): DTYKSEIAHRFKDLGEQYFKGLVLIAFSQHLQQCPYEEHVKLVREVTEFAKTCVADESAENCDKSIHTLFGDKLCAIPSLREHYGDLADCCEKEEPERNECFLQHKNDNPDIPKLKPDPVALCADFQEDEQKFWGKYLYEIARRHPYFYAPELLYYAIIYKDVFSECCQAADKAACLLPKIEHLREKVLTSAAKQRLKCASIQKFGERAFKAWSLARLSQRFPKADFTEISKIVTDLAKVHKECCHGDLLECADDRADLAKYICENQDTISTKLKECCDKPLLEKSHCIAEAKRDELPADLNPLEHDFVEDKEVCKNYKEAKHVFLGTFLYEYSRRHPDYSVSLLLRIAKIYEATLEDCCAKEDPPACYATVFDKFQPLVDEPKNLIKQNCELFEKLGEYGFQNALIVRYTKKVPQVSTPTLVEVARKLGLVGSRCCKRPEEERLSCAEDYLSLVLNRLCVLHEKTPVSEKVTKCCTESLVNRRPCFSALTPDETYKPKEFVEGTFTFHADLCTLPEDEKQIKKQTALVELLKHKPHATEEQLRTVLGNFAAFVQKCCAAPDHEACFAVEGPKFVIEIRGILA
Description: as §1, §2

[5] = target: T1, human serum albumin (HSA); assay: Fluorescence quenching of albumin by CIT, binding constant and van't Hoff thermodynamics; set-up: purchased Sigma-Aldrich
Description: as §1
as §2, with “Fluorescence emission spectra were recorded in PBS buffer (pH 7.4; λexc = 280 nm).” left out
To get deeper insight into the formation of CIT-HSA complex, quenching experiments were also performed at different temperatures (25, 30, 35, and 40 °C). Thermodynamic parameters were quantified applying the van’t Hoff equation: (2) lnK=−ΔG/RT=−ΔH/RT+ΔS/R where ΔG is the Gibbs free energy change, ΔS is the entropy change, while ΔH is the enthalpy change associated with the complex formation.

MDCK cells = assay: MDCK cell viability (calcein acetoxymethyl ester); format: cell-based; conditions: 24 h
Description: MDCK (immortalized, epithelial-kidney, ATCC: CCL 34) cells were cultured in DMEM containing FBS (10%), penicillin (100 U/mL) and streptomycin (100 μg/mL), in 25 cm^2 sterile plastic flasks (VWR) and in 24-well sterile plastic plates (VWR). In order to test the effect of CIT on cell viability in absence and presence of albumin, cell media with and without 10% FBS or 40 g/L HSA were also prepared. After 24-h treatment of MDCK cells (in 24-well plates) with CIT (0–100 μM) in absence and presence of FBS (10%) or HSA (40 g/L), cells were washed three times with 500 μL PBS. Then PBS was replaced with 500 µL Hanks + glucose buffer containing 1.6 µM calcein acetoxymethyl ester and cells were incubated for 40 min at 37 °C in the dark. Thereafter, wells were washed again with 500 μL ice-cold PBS and the emptied wells were filled with 500 μL of 5% perchloric acid (PCA) after which cells were incubated for 15 min at room temperature. 20 μL PCA extract was added to 180 μL of 1 M NaOH using black 96-well optical plates (VWR) for fluorescence measurement of the formed calcein (λexc = 490 nm, λem = 520 nm). Fluorescence intensities were measured with a microplate reader (Perkin Elmer EnSpire Multimode reader).

[6] = target: T1, human serum albumin (HSA); assay: Fluorescence polarization displacement of OTA from HSA; format: binding; set-up: purchased Sigma-Aldrich; conditions: OTA 1 μM, HSA 1.4 μM, competitor 1–30 μM
[7] = target: T1, human serum albumin (HSA); conditions: cited from earlier work
[8] = van't Hoff, 25-40 °C quenching data

T1 sequence (P02768 25-609): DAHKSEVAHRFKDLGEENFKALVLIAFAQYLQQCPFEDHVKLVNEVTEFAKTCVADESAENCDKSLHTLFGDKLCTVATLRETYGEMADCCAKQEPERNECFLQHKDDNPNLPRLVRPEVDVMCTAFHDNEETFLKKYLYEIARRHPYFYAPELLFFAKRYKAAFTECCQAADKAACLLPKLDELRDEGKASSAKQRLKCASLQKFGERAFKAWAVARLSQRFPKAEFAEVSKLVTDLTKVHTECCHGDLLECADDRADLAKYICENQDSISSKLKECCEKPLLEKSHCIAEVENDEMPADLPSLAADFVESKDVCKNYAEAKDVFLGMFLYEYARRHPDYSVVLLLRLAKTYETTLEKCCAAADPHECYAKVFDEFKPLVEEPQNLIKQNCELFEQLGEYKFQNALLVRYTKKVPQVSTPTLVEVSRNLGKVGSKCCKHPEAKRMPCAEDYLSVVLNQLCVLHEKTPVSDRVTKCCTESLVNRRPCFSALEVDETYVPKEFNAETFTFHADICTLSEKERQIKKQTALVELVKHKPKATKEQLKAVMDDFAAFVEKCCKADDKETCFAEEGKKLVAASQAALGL

CC1=C2C(=CO[C@H](C)[C@H]2C)C(O)=C(C(=O)O)C1=O [CIT, Citrinin]
fluorescence intensity of HSA-bound warfarin (displacement of warfarin) [1]: significant decrease | CIT in the filtrate in presence of HSA ([2]; 1 μM CIT, HSA 1, 2.5 and 5 μM, 10 kDa cut-off): significant decrease | Kd (rat serum albumin (RSA)): 3.16 µM | Kd [3]: 8.91 µM | Kd [4]: 11 µM | Kd ([5]; PBS pH 6.0, 25 °C, read-out: logK of CIT-HSA complex (converted)): 5.62 µM | Kd ([5]; PBS pH 7.0, 25 °C, read-out: logK of CIT-HSA complex (converted)): 5.25 µM | Kd ([5]; PBS pH 7.4, 25 °C, read-out: logK (±SD) of CIT-HSA complex (converted)): 4.79 µM | Kd ([5]; PBS pH 7.4, 30 °C, read-out: logK (±SD) of CIT-HSA complex (converted)): 5.5 µM | Kd ([5]; PBS pH 7.4, 35 °C, read-out: logK (±SD) of CIT-HSA complex (converted)): 6.46 µM | Kd ([5]; PBS pH 7.4, 40 °C, read-out: logK (±SD) of CIT-HSA complex (converted)): 7.76 µM | Kd ([5]; PBS pH 7.8, 25 °C, read-out: logK of CIT-HSA complex (converted)): 7.59 µM | ∆H of CIT-HSA complex formation [5, 8]: -5.772 kcal/mol | ∆S of CIT-HSA complex formation [5, 8]: +20.90 J·mol^−1·K^−1 | CIT-induced viability loss in presence of FBS (MDCK cells; 100 μM CIT + 10% FBS): considerably alleviated | CIT-induced viability loss in presence of HSA (MDCK cells; 100 μM CIT + 40 g/L HSA): considerably alleviated | decrease of cell viability (MDCK cells; 100 μM CIT, absence of FBS): approximately 50% | fluorescence polarization of OTA (displacement of OTA) [6]: decrease of fluorescence polarization of OTA in a concentration dependent fashion

C[C@@H]1Cc2c(Cl)cc(C(=O)N[C@@H](Cc3ccccc3)C(=O)O)c(O)c2C(=O)O1 [OTA, ochratoxin A]
logK of OTA-HSA complex ([7]; 25 °C): 7.4–7.6 | complex stability with HSA compared to BSA ([7]; HSA vs BSA): 15 fold | complex stability with HSA compared to RSA ([7]; HSA vs RSA): 30 fold | displacement of CIT from HSA ([2]; 1 μM CIT + 5 μM HSA, 5 μM OTA): almost complete displacement | change of CIT concentration in the filtrate caused by the competitor ([2]; 1 μM CIT + 5 μM HSA, warfarin or ibuprofen 5 or 10 μM, OTA 2.5 and 5 μM): significant elevation
